Drawing on US10316035B2, “Triazolopyridine inhibitors of myeloperoxidase” (BRISTOL-MYERS SQUIBB COMPANY, priority 2015, dated 2019), this text covers IC50 for 17 molecules.

For this experiment, the target named is T1, myeloperoxidase (MPO) (Homo sapiens, UniProt P05164).
T1 sequence (P05164 49-745): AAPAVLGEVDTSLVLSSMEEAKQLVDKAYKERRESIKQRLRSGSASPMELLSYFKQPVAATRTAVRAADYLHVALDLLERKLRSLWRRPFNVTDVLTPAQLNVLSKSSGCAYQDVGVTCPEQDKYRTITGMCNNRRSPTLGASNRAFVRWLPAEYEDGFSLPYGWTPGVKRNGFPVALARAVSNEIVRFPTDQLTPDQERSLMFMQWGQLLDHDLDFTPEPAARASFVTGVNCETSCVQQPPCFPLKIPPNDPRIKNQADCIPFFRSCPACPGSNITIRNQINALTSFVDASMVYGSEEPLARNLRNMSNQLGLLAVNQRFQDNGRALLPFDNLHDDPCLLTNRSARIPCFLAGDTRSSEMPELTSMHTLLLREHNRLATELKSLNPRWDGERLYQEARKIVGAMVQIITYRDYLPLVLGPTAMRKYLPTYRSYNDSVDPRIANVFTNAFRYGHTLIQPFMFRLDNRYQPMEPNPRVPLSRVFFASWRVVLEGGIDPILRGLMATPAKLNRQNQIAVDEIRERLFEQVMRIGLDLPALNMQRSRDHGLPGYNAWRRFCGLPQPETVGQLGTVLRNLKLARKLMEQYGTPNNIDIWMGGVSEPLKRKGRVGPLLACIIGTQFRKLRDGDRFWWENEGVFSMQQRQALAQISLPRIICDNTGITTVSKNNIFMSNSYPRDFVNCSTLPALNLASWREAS
Briefly: MPO peroxidation assay (Amplex Red assay). Format: biochemical. Conditions: MPO peroxidation, potency range class; read-out: Amplex Red IC50. Here is the method: MPO Peroxidation Assay (Amplex Red Assay)
MPO peroxidation activity was measured in 100 mM KPi (pH 7.4) by utilizing the non-fluorescent reagent Amplex Red (Invitrogen catalog # A12222) which can be oxidized to the highly fluorescent resorufin. Amplex Red is oxidized by the peroxidase action of MPO to resorufin. Reactions were carried out in 50 μL total volume by adding a 25 μL mixture of 200 pM myeloperoxidase and 40 nM H2O2(Sigma #349887) to 100 nL inhibitor in 100% DMSO in a 384 well Perkin Elmer Optiplate. Enzyme and compound were preincubated for ten minutes at room temperature.
After the ten minute preincubation, 25 μL of an Amplex Red mixture containing 200 μM Amplex Red and 10 mM H2O2 was added to the plate. Kinetic determinations were carried out immediately on a Perkin Elmer Envision (15 minute kinetic read, Ex: 535 nm, Em: 590 nm).
IC50 values were calculated by determining the slope of the linear portion of the kinetic trace ([…]), and using that calculated slope to determine % inhibition occurring at each concentration of inhibitor using the following equation:
[formula] where A=minimal Y value (activity level of inhibited sample), B=maximal Y value (activity level of uninhibited sample), C=Log IC50, D=Hill Slope, x=concentration of inhibitor. MPO Chlorination Assay (APF Assay)
Turning to `COC(=O)c1cccc(COc2cc(N)nc3[nH]nnc23)c1` [Example 22, Methyl 3-((5-amino-3H-[1,2,3]triazolo[4,5-b]pyridin-7-yloxy)methyl)benzoate], the IC50 was 0.001 to 0.1 µM.

On to `COC(=O)c1cccc(COc2cc(N)nc3[nH]nnc23)c1Cl` [Example 24, Methyl 3-((5-amino-3H-[1,2,3]triazolo[4,5-b]pyridin-7-yloxy)methyl)-2-chlorobenzoate], for which the IC50 was 0.001 to 0.1 µM. On to `Nc1cc(OCc2cccc(C(=O)N3CCOCC3)c2)c2nn[nH]c2n1` [Example 25, (3-((5-Amino-3H-[1,2,3]triazolo[4,5-b]pyridin-7-yloxy)methyl)phenyl)(morpholino)methanone], for which the IC50 lay within 0.101 to 0.999 µM. Consider `COc1c(COc2cc(N)nc3[nH]nnc23)cccc1C(F)(F)F` [Example 26], for which the IC50 was in the range of 0.001 to 0.1 µM. Under `Nc1cc(OCc2cc(OC(F)(F)F)ccc2F)c2nn[nH]c2n1` [Example 27, 7-(2-Fluoro-5-(trifluoromethoxy)benzyloxy)-3H-[1,2,3]triazolo[4,5-b]pyridin-5-amine] stands 0.001 to 0.1 µM; under `Nc1cc(OCc2cc(C(F)(F)F)ccc2Cl)c2nn[nH]c2n1` [Example 28, 7-(2-Chloro-5-(trifluoromethyl)benzyloxy)-3H-[1,2,3]triazolo[4,5-b]pyridin-5-amine], 0.001 to 0.1 µM; under `Nc1cc(OCc2cc(C(F)(F)F)cc(C(F)(F)F)c2)c2nn[nH]c2n1` [Example 29, 7-(3,5-Bis(trifluoromethyl)benzyloxy)-3H-[1,2,3]triazolo[4,5-b]pyridin-5-amine], 0.001 to 0.1 µM. Regarding `COc1ccc(C(F)(F)F)cc1COc1cc(N)nc2[nH]nnc12` [Example 30, 7-(2-Methoxy-5-(trifluoromethyl)benzyloxy)-3H-[1,2,3]triazolo[4,5-b]pyridin-5-amine], the IC50 lay in the range of 0.001 to 0.1 µM. For the molecule `Nc1cc(OCc2c(Cl)cccc2OC(F)(F)F)c2nn[nH]c2n1` [Example 31, 7-(2-Chloro-6-(trifluoromethoxy)benzyloxy)-3H-[1,2,3]triazolo[4,5-b]pyridin-5-amine], the IC50 was 0.001 to 0.1 µM. Under `Nc1cc(OCc2cc(OC(F)F)ccc2F)c2nn[nH]c2n1` [Example 32, 7-(5-(Difluoromethoxy)-2-fluorobenzyloxy)-3H-[1,2,3]triazolo[4,5-b]pyridin-5-amine] stands 0.001 to 0.1 µM. Under `NC(=O)c1cccc(COc2cc(N)nc3[nH]nnc23)c1Cl` [Example 33, 3-((5-Amino-3H-[1,2,3]triazolo[4,5-b]pyridin-7-yloxy)methyl)-2-chlorobenzamide] stands 0.101 to 0.999 µM; under `COc1ccc(OC(F)(F)F)cc1COc1cc(N)nc2[nH]nnc12` [Example 35, 7-(2-Methoxy-5-(trifluoromethoxy)benzyloxy)-3H-[1,2,3]triazolo[4,5-b]pyridin-5-amine], 0.001 to 0.1 µM; under `Nc1cc(OCc2ccccc2OCC(=O)NCC2CC2)c2nn[nH]c2n1` [Example 37, 2-(2-((5-Amino-3H-[1,2,3]triazolo[4,5-b]pyridin-7-yloxy)methyl)phenoxy)-N-(cyclopropylmethyl)acetamide], 0.101 to 0.999 µM. Under `Nc1cc(OCc2ccccc2Oc2ccccc2)c2nn[nH]c2n1` [Example 38, 7-(2-Phenoxybenzyloxy)-3H-[1,2,3]triazolo[4,5-b]pyridin-5-amine] stands 0.001 to 0.1 µM; under `COC(=O)c1ccc(F)c(COc2cc(N)nc3[nH]nnc23)c1` [Example 41, Methyl 3-((5-amino-3H-[1,2,3]triazolo[4,5-b]pyridin-7-yloxy)methyl)-4-fluorobenzoate], 0.001 to 0.1 µM; under `CS(=O)(=O)c1cc(Cl)cc(COc2cc(N)nc3[nH]nnc23)c1` [Example 44, 7-(3-Chloro-5-(methylsulfonyl)benzyloxy)-3H-[1,2,3]triazolo[4,5-b]pyridin-5-amine], 0.101 to 0.999 µM. For `Nc1cc(OCc2cccc(-n3cnc(C(F)F)n3)c2)c2nn[nH]c2n1` [Example 45, 7-(3-(3-(Difluoromethyl)-1H-1,2,4-triazol-1-yl)benzyloxy)-3H-[1,2,3]triazolo[4,5-b]pyridin-5-amine], the IC50 was 0.001 to 0.1 µM.
